For the experiment, the system named is M. tuberculosis SHRE resistant. In words: microbe, parasite or virus in culture. Particulars: Mycobacterium tuberculosis. In kind it is cell-based.

*1 amine or outer side, *2 acyl side, *3 side chain or, on linkers, in order; H or OH if unused. Where a SMILES comes first, the peptide text is derived from it. Bridges are numbered along the chain shown (N, C = ends). Roman numbers before positions name the chains, in order. [ ]: non-standard residue; d: D form. Actinocin(1to9) = Cc1c2oc3c(C)ccc(C(=O)[*:2])c3nc-2c(C(=O)[*:1])c(N)c1=O; Pro(4-oxo) = O=C1CN[C@H](C(=O)O)C1; NMeV = CN[C@H](C(=O)O)C(C)C; Sar = CNCC(=O)O

Regarding `Cc1c2oc3c(C)ccc(C(=O)N[C@@H]4C(=O)N[C@@H](C(C)C)C(=O)N5CCC[C@H]5C(=O)N(C)CC(=O)N(C)[C@@H](C(C)C)C(=O)O[C@@H]4C)c3nc-2c(C(=O)N[C@@H]2C(=O)N[C@@H](C(C)C)C(=O)N3CC(=O)C[C@H]3C(=O)N(C)CC(=O)N(C)[C@@H](C(C)C)C(=O)O[C@@H]2C)c(N)c1=O` [compound of formula (I), Transitmycin] (I: TV[Pro(4-oxo)][Sar][NMeV] / II: TVP[Sar][NMeV]; ester I:1-I:C, II:1-II:C; linker I:N-II:N via Actinocin(1to9)), the MIC was 6.25 µg/mL.
